Measured values: the supplement of paper PMC10307832

Experiments:
Test in all cases: relative viability (nuclei count vs DMSO), 5 days (fraction); higher = more cells survive
NCI-H2087 = test system: NCI-H2087
Method in brief: (§1)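 Lung cancer cell lines in 1536-well plates got either a single drug or a fixed anchor-drug dose together with five library-drug doses (not always all listed) in √10 steps, by pin tool, on the day after seeding. Nuclei were counted after 5 days, and relative viability is the treated-to-vehicle ratio of nuclei counts. Values are medians of duplicate plates.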

SK-MES-1 = test system: SK-MES-1
Method in brief: as §1

PC-14 = test system: PC-14
Method in brief: as §1

NCI-H2085 = test system: NCI-H2085
Method in brief: as §1

LXF-289 = test system: LXF-289
Method in brief: as §1

NCI-H1563 = test system: NCI-H1563
Method in brief: as §1

NCI-H520 = test system: NCI-H520
Method in brief: as §1

NCI-H1993 = test system: NCI-H1993
Method in brief: as §1

NCI-H1355 = test system: NCI-H1355
Method in brief: as §1

NCI-H1666 = test system: NCI-H1666
Method in brief: as §1

NCI-H1755 = test system: NCI-H1755
Method in brief: as §1

## CCNC(=O)c1noc(-c2cc(C(C)C)c(O)cc2O)c1-c1ccc(CN2CCOCC2)cc1 [Luminespib] + Nc1nc2[nH]cc(CCc3ccc(C(=O)N[C@@H](CCC(=O)O)C(=O)O)cc3)c2c(=O)[nH]1 [Pemetrexed] (partner 0.2 µM)
NCI-H2087; first compound 0.002 µM
  relative viability: 0.708
NCI-H2087; first compound 0.006325 µM
  relative viability: 0.627
NCI-H2087; first compound 0.02 µM
  relative viability: 0.639
NCI-H2087; first compound 0.06325 µM
  relative viability: 0.152
NCI-H2087; first compound 0.2 µM
  relative viability: 0.133
SK-MES-1; first compound 0.002 µM
  relative viability: 0.962
SK-MES-1; first compound 0.006325 µM
  relative viability: 0.877
SK-MES-1; first compound 0.02 µM
  relative viability: 0.517
SK-MES-1; first compound 0.06325 µM
  relative viability: 0.153
SK-MES-1; first compound 0.2 µM
  relative viability: 0.177
PC-14; first compound 0.002 µM
  relative viability: 0.148
PC-14; first compound 0.006325 µM
  relative viability: 0.175
PC-14; first compound 0.02 µM
  relative viability: 0.132
PC-14; first compound 0.06325 µM
  relative viability: 0.0853
PC-14; first compound 0.2 µM
  relative viability: 0.0503
NCI-H2085; first compound 0.002 µM
  relative viability: 0.908
NCI-H2085; first compound 0.006325 µM
  relative viability: 0.893
NCI-H2085; first compound 0.02 µM
  relative viability: 0.698
NCI-H2085; first compound 0.06325 µM
  relative viability: 0.309
NCI-H2085; first compound 0.2 µM
  relative viability: 0.261
LXF-289; first compound 0.002 µM
  relative viability: 0.91
LXF-289; first compound 0.006325 µM
  relative viability: 0.915
LXF-289; first compound 0.02 µM
  relative viability: 1.09
LXF-289; first compound 0.06325 µM
  relative viability: 0.333
LXF-289; first compound 0.2 µM
  relative viability: 0.136
NCI-H1563; first compound 0.002 µM
  relative viability: 0.808
NCI-H1563; first compound 0.006325 µM
  relative viability: 0.599
NCI-H1563; first compound 0.02 µM
  relative viability: 0.668
NCI-H1563; first compound 0.06325 µM
  relative viability: 0.402
NCI-H1563; first compound 0.2 µM
  relative viability: 0.41
NCI-H520; first compound 0.002 µM
  relative viability: 0.691
NCI-H520; first compound 0.006325 µM
  relative viability: 0.699
NCI-H520; first compound 0.02 µM
  relative viability: 0.792
NCI-H520; first compound 0.06325 µM
  relative viability: 0.135
NCI-H520; first compound 0.2 µM
  relative viability: 0.13
NCI-H1993; first compound 0.002 µM
  relative viability: 0.566
NCI-H1993; first compound 0.006325 µM
  relative viability: 0.577
NCI-H1993; first compound 0.02 µM
  relative viability: 0.557
NCI-H1993; first compound 0.06325 µM
  relative viability: 0.284
NCI-H1993; first compound 0.2 µM
  relative viability: 0.367
NCI-H1355; first compound 0.002 µM
  relative viability: 1.12
NCI-H1355; first compound 0.006325 µM
  relative viability: 1.02
NCI-H1355; first compound 0.02 µM
  relative viability: 0.627
NCI-H1355; first compound 0.06325 µM
  relative viability: 0.895
NCI-H1355; first compound 0.2 µM
  relative viability: 0.14
NCI-H1666; first compound 0.002 µM
  relative viability: 0.876
NCI-H1666; first compound 0.006325 µM
  relative viability: 0.799
NCI-H1666; first compound 0.02 µM
  relative viability: 0.908
NCI-H1666; first compound 0.06325 µM
  relative viability: 0.833
NCI-H1666; first compound 0.2 µM
  relative viability: 0.911
NCI-H1755; first compound 0.002 µM
  relative viability: 0.415
NCI-H1755; first compound 0.006325 µM
  relative viability: 0.424
NCI-H1755; first compound 0.02 µM
  relative viability: 0.415
NCI-H1755; first compound 0.06325 µM
  relative viability: 0.264
